Like-named read-outs stand apart in the source and are kept apart here.
What was measured:
Tau-BiFC cells = test: Cell viability (stained nuclei count) in tau-BiFC cells
Procedure: (§1) In order to select novel tau protein aggregation—inhibiting substances, tau-BiFC cell model, in which formation of tau oligomers in living cells is easily observed, was used. Tau-BiFC cells were aliquoted into a 384-well plate. […] After 48 hours, nuclei in the cells were stained using Hoechst (at a treatment concentration of 2 μg/mL), and BiFC fluorescence intensity was automatically measured using Operetta (PerkinElmer) to count stained nuclei in each well out of the entire well plate. […] Furthermore, the degree of cytotoxicity induced by the newly synthesized compound was also measured based on the 100% cell viability of the group treated only with Forskolin as a reference, and the cytotoxicity value of each compound was calculated using the equation “(number of stained nuclei in group treated with compound/number of stained nuclei in group treated with Forskolin)×100”.
(§2) After 48 hours, tau protein aggregation reaction and degrees of cytotoxicity were analyzed by observing images of the cells. IC50 and toxicity of the compounds were analyzed by nonlinear regression analysis of Prism software (Graph Pad).

tau protein = biological target: T1, tau protein (Homo sapiens, UniProt P10636); test: Tau-BiFC cell model, Forskolin-induced tau protein aggregation; format: cell-based; conditions: for Tau BiFC in cells Response (%, @10 μM): 10 μM compound, BiFC fluorescence relative to Forskolin-only group (100% tau protein-aggregated state)
T1 construct: fused on or other part: Split Venus fragments VN173 and VC155, each fused to one copy of tau as BiFC reporter halves
Procedure: as §1, §2

[1] = Liver microsome stability, dog; format: in vitro ADME; conditions: dog liver microsomes 0.25 mg/mL, 1 μM compound, 37° C., 30 minutes, NADPH
Procedure: (§3) The stability of liver microsomes due to the compounds prepared according to Examples 1 to 14 was confirmed. Specifically, four types of liver microsomes (human, dog, rat, and mouse, each 0.25 mg/mL), a 0.1 M phosphate buffer solution (pH 7.4), and each of the compounds at a concentration of 1 μM were mixed and pre-cultured at 37° C. for 5 minutes and further cultured at 37° C. for 30 minutes together with an NADPH generation system solution added thereto. Thereafter, the reaction was terminated by adding an acetonitrile solution containing an internal standard material (chlorpropamide) and centrifuged for 5 minutes (14,000 rpm, 4° C.), and then a supernatant was injected into an LC-MS/MS system for analysis of substrate drugs to thereby evaluate metabolic stability due to 8 types of compounds.
(§4) The amount of the substrate remaining after the reaction was analyzed using the Shimadzu Nexera XR system and TSQ Vantage (Thermo). In an HPLC column, Kinetex XB-C18 (2.1 mm×100 mm, particle size of 2.6 μm; Phenomenex, USA) was used, and mobile phases were (A) distilled water containing 0.1% formic acid and (B) acetonitrile containing 0.1% formic acid. Analyst software (version 1.6.3) and Xcalibur (version 1.6.1) were used for data analysis.

CYP2C9 = biological target: T2, CYP2C9 (Homo sapiens, UniProt P11712); test: CYP coenzyme activity in human liver microsomes, CYP2C9; format: in vitro ADME; conditions: 10 μM compound, human liver microsomes 0.25 mg/mL, substrate diclofenac, 15 minutes
T2 construct: human liver microsomes (0.25 mg/mL); from tissue; host or cells: human liver microsomes
Procedure: (§5) Specifically, human liver microsomes (0.25 mg/mL), a 0.1 M phosphate buffer solution (pH 7.4), a substrate drug cocktail of five types of drug metabolism enzymes (50 μM phenacetin, 10 μM diclofenac, 100 μM S-mephenytoin, 5 μM dextromethorphan, and 2.5 μM midazolam), and the compound at a concentration of 0 μM or 10 μM were mixed and pre-cultured at 37° C. for 5 minutes, and then further cultured at 37° C. for 15 minutes together with an NADPH generation system solution added thereto. Thereafter, the reaction was terminated by adding an acetonitrile solution containing an internal standard material (terfenadine) and centrifuged for 5 minutes (14,000 rpm, 4° C.), and then a supernatant was injected into an LC-MS/MS system for simultaneous analysis of metabolites of the substrate drugs to thereby evaluate the inhibitory effects on drug metabolism.
(§6) Metabolites of each CYP coenzyme indicator drug generated through the reaction were analyzed using the Shimadzu Nexera XR system and TSQ Vantage (Thermo). In an HPLC column, Kinetex C18 (2.1 mm×100 mm, 2.6 μm particle size; Phenomenex, USA) was used, and mobile phases were (A) distilled water containing 0.1% formic acid and (B) acetonitrile containing 0.1% formic acid, and a gradient program shown in Table 3 was applied thereto.
(§7) The generated metabolites were quantified using a multiple reaction monitoring (MRM) quantification mode, and Xcalibur (version 1.6.1) was used for data analysis. In order to express the inhibitory effects of the novel compounds prepared according to the examples of the present invention on CYP coenzyme activity, CYP coenzyme activities (%) with respect to the control group not treated with any compound are shown in Table 4 below.

CYP1A2 = biological target: T3, CYP1A2 (Homo sapiens, UniProt P05177); test: CYP coenzyme activity in human liver microsomes, CYP1A2; format: in vitro ADME; conditions: 10 μM compound, human liver microsomes 0.25 mg/mL, substrate phenacetin, 15 minutes
T3 construct: human liver microsomes (0.25 mg/mL); from tissue; host or cells: human liver microsomes
T3 sequence (P05177 1-516): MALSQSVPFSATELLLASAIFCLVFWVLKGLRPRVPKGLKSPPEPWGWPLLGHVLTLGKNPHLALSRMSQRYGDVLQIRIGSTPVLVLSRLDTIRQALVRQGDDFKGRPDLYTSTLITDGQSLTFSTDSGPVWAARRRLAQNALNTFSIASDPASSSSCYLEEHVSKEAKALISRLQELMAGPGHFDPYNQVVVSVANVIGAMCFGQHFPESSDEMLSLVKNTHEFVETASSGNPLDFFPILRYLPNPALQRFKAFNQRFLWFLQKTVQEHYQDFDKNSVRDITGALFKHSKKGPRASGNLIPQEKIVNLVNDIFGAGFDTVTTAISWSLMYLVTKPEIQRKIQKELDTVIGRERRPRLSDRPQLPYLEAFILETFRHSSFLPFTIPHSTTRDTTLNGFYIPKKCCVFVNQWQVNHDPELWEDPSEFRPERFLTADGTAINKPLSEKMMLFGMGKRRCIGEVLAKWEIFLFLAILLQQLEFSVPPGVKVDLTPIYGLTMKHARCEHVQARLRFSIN
Procedure: as §5, §6, §7

CYP2D6 = biological target: T4, CYP2D6 (Homo sapiens, UniProt P10635); test: CYP coenzyme activity in human liver microsomes, CYP2D6; format: in vitro ADME; conditions: 10 μM compound, human liver microsomes 0.25 mg/mL, substrate dextromethorphan, 15 minutes
T4 construct: human liver microsomes (0.25 mg/mL); from tissue; host or cells: human liver microsomes
Procedure: as §5, §6, §7

[2] = Liver microsome stability, human; format: in vitro ADME; conditions: human liver microsomes 0.25 mg/mL, 1 μM compound, 37° C., 30 minutes, NADPH
Procedure: as §3, §4

CYP3A4 = biological target: T5, CYP3A4 (Homo sapiens, UniProt P08684); test: CYP coenzyme activity in human liver microsomes, CYP3A4; format: in vitro ADME; conditions: 10 μM compound, human liver microsomes 0.25 mg/mL, substrate midazolam, 15 minutes
T5 construct: human liver microsomes (0.25 mg/mL); from tissue; host or cells: human liver microsomes
Procedure: as §5, §6, §7

[3] = Liver microsome stability, rat; format: in vitro ADME; conditions: rat liver microsomes 0.25 mg/mL, 1 μM compound, 37° C., 30 minutes, NADPH
Procedure: as §3, §4

CYP2C19 = biological target: T6, CYP2C19 (Homo sapiens, UniProt P33261); test: CYP coenzyme activity in human liver microsomes, CYP2C19; format: in vitro ADME; conditions: 10 μM compound, human liver microsomes 0.25 mg/mL, substrate S-mephenytoin, 15 minutes
T6 construct: human liver microsomes (0.25 mg/mL); from tissue; host or cells: human liver microsomes
Procedure: as §5, §6, §7

[4] = Liver microsome stability, mouse; format: in vitro ADME; conditions: mouse liver microsomes 0.25 mg/mL, 1 μM compound, 37° C., 30 minutes, NADPH
Procedure: as §3, §4

[5] = 10 μM compound, stained nuclei relative to Forskolin-only group (100%), 48 hours
[6] = tau-BiFC cells, Forskolin 30 μM, 48 hours, read-out: Tau BiFC in cells IC50

T6 sequence (P33261 whole entry): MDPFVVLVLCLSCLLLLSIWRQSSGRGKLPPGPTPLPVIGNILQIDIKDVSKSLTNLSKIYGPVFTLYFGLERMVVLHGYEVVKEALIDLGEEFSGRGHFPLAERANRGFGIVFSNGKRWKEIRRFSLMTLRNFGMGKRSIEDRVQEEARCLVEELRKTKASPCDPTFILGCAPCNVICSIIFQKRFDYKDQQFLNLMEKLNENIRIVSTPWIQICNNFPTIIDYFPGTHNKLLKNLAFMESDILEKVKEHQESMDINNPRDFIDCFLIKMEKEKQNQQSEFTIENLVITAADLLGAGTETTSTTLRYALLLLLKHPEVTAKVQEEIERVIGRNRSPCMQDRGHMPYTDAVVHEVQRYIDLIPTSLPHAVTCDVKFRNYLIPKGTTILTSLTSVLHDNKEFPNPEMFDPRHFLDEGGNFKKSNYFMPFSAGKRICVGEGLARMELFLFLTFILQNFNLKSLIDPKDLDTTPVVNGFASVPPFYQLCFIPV
T4 sequence (P10635 whole entry): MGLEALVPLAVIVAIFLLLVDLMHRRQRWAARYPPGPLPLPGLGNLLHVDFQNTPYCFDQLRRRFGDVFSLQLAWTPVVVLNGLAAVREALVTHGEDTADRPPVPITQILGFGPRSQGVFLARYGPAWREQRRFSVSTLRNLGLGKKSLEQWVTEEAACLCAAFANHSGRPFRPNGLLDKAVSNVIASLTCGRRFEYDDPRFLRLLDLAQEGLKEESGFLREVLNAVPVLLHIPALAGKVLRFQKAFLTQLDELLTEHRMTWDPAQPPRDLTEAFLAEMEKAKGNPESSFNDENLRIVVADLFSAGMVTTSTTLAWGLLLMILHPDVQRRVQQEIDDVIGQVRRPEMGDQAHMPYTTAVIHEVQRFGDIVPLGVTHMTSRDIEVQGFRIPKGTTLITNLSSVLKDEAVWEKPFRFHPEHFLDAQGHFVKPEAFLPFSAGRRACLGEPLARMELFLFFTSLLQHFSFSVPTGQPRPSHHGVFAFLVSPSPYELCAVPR
T1 sequence (P10636 2-441 isoform P10636-8 limits assumed): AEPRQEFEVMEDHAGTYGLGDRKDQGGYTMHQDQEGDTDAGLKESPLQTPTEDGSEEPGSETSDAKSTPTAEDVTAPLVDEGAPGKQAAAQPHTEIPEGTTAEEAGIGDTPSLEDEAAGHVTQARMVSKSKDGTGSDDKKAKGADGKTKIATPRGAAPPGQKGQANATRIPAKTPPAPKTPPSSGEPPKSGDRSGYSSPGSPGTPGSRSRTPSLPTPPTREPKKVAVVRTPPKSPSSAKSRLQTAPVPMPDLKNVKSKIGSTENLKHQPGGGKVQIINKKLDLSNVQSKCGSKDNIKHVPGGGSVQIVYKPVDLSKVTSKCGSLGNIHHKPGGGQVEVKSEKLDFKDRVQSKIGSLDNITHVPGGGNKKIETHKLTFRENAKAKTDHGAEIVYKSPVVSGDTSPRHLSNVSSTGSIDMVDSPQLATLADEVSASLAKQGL
T5 sequence (P08684 whole entry): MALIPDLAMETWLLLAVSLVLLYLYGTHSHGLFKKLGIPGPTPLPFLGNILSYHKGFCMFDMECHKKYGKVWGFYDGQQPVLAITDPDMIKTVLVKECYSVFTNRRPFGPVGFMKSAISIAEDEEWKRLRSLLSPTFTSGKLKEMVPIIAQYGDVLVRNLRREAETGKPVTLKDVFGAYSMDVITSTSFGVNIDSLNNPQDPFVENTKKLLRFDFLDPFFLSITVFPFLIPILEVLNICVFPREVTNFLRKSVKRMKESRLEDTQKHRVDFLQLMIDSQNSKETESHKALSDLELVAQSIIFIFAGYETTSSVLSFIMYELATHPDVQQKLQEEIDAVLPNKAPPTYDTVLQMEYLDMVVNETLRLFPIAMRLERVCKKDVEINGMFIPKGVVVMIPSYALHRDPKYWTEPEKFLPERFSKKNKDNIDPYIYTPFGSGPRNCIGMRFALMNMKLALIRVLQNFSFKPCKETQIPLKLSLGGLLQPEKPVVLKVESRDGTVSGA
T2 sequence (P11712 whole entry): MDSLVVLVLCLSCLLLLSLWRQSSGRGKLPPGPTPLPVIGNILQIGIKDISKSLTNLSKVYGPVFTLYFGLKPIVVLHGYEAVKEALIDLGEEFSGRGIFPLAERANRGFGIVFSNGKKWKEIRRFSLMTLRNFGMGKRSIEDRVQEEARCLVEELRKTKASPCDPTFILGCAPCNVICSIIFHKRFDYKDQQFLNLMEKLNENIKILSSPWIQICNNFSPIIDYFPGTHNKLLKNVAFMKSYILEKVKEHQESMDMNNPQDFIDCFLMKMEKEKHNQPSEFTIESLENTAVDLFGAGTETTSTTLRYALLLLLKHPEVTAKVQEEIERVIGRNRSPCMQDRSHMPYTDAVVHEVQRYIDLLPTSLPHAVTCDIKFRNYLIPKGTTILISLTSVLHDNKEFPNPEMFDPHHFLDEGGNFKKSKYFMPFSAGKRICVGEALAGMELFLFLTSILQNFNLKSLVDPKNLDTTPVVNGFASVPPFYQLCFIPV

| SMILES | Cell viability (%, @10 μM) (Tau-BiFC cells; [5]) [%] | Tau BiFC in cells Response (%, @10 μM) (tau protein; 48 hours) [%] | IC50 (tau protein; [6]) [nM] | also measured |
| --- | --- | --- | --- | --- |
| N#CC(C#N)=NNc1ccc(-c2ccc(=O)[nH]n2)cc1 [Comparative Example 1, reference compound] | 130.3 | 10.1 |  | IC50 (tau protein; Tau BiFC in cells IC50, tau-BiFC cells, Forskolin 30 μM, 48 hours): 16800 nM |
| Cc1cc(=O)[nH]nc1-c1ccc(NN=C(C#N)C#N)cc1 [Comparative Example 2, reference compound] | 128.6 | 1.8 | 3500 |  |
| Cc1cc(-c2ccc(NN=C(C#N)C#N)cc2)n[nH]c1=O [Comparative Example 3, reference compound] | 113.1 | 37.11 | > 10000 |  |
| CC1CC(=O)NN=C1c1ccc(NN=C(C#N)C#N)cc1 (stereo not shown) [Comparative Example 4, reference compound] | 120.3 | 45.7 | > 10000 |  |
| N#CC(C#N)=NNc1ccc(-n2ncccc2=O)cc1 [Comparative Example 5, reference compound] | 124.2 | 35.1 | > 10000 |  |
| Cc1ccc(=O)n(-c2ccc(NN=C(C#N)C#N)cc2)n1 [Comparative Example 6, reference compound] | 114.9 | 46.7 | > 10000 |  |
| Cc1cnn(-c2ccc(NN=C(C#N)C#N)cc2)c(=O)c1 [Comparative Example 7, reference compound] | 102.3 | 19.4 | 4500 |  |
| Cc1ccnn(-c2ccc(NN=C(C#N)C#N)cc2)c1=O [Comparative Example 8, reference compound] |  | 0 | 2500 | Cell viability (%, @10 μM) (Tau-BiFC cells; 48 h, 10 μM): 110.1% |
| CC(C)N1N=C(c2ccc(NN=C(C#N)C#N)cc2)CCC1=O [Example 1, (4-(1-isopropyl-6-oxo-1,4,5,6-tetrahydropyridazin-3-yl)phenyl)carbonohydrazonoyl dicyanide] | 110.1 |  |  | Dog (%) amount remaining after the reaction [1]: >100%; CYP2C9 activity (%) with respect to control group not treated with any compound (CYP2C9): 70.4%; CYP1A2 activity (%) with respect to control group not treated with any compound (CYP1A2): 79%; CYP2D6 activity (%) with respect to control group not treated with any compound (CYP2D6): 74.6%; Human (%) amount remaining after the reaction [2]: 6.4%; CYP3A4 activity (%) with respect to control group not treated with any compound (CYP3A4): 81.7%; Rat (%) amount remaining after the reaction [3]: >100%; CYP2C19 activity (%) with respect to control group not treated with any compound (CYP2C19): 70.8%; Mouse (%) amount remaining after the reaction [4]: >100% |
| CC1CC(=O)N(C(C)C)N=C1c1ccc(NN=C(C#N)C#N)cc1 (stereo not shown) [Example 2, (4-(1-isopropyl-4-methyl-6-oxo-1,4,5,6-tetrahydropyridazin-3-yl)phenyl)carbonohydrazonoyl dicyanide] | 102.8 | 0 |  | Dog (%) amount remaining after the reaction [1]: >100%; CYP2C9 activity (%) with respect to control group not treated with any compound (CYP2C9): 65.7%; CYP1A2 activity (%) with respect to control group not treated with any compound (CYP1A2): 80.5%; CYP2D6 activity (%) with respect to control group not treated with any compound (CYP2D6): 84.9%; Human (%) amount remaining after the reaction [2]: 63.6%; IC50 (tau protein): 400 nM; CYP3A4 activity (%) with respect to control group not treated with any compound (CYP3A4): 74.6%; Rat (%) amount remaining after the reaction [3]: 92.5%; CYP2C19 activity (%) with respect to control group not treated with any compound (CYP2C19): 64.7%; Mouse (%) amount remaining after the reaction [4]: 89% |
| CCN1N=C(c2ccc(NN=C(C#N)C#N)cc2)C(C)CC1=O (stereo not shown) [Example 3, (4-(1-ethyl-4-methyl-6-oxo-1,4,5,6-tetrahydropyridazin-3-yl)phenyl)carbonohydrazonoyl dicyanide] | 68.2 | 0 |  | Dog (%) amount remaining after the reaction [1]: 91.9%; CYP2C9 activity (%) with respect to control group not treated with any compound (CYP2C9): 99.9%; CYP1A2 activity (%) with respect to control group not treated with any compound (CYP1A2): >100%; CYP2D6 activity (%) with respect to control group not treated with any compound (CYP2D6): 93.6%; Human (%) amount remaining after the reaction [2]: 90.3%; IC50 (tau protein): 90 nM; CYP3A4 activity (%) with respect to control group not treated with any compound (CYP3A4): >100%; Rat (%) amount remaining after the reaction [3]: 89.6%; CYP2C19 activity (%) with respect to control group not treated with any compound (CYP2C19): >100%; Mouse (%) amount remaining after the reaction [4]: 89.6% |
| COc1ccc(N2N=C(c3ccc(NN=C(C#N)C#N)cc3)C(C)CC2=O)cc1 (stereo not shown) [Example 7, (4-(1-(4-methoxyphenyl)-4-methyl-6-oxo-1,4,5,6-tetrahydropyridazin-3-yl)phenyl)carbonohydrazonoyl dicyanide] | 89.3 | 2.3 |  | IC50 (tau protein): 940 nM |
| C[C@@H]1CC(=O)NN=C1c1ccc(NN=C(C#N)C#N)cc1 [Levosimendan, reference compound] | 73.21 | 9.58 | 1440 |  |

— US12612372B2, “Oxopyridazinyl-phenyl-carbonohydrazonoyl dicyanide compound and use thereof” (KOREA INSTITUTE OF SCIENCE AND TECHNOLOGY, priority 2020, dated 2026)
